This note sets out measurements from paper PMC7932521, “2-aminobenzimidazoles for leishmaniasis: From initial hit discovery to in vivo profiling” (PLoS Neglected Tropical Diseases, 2021).

In one data set the target is T1, CB1 (Homo sapiens, UniProt P21554).
T1 construct: expressed in transfected cells; host or cells: CHO
Description: Bioprofiling 6pt Ag CB1 CHO. Particulars: agonist readout. Type of data set: cell-based. The method, then:
(§1) The compounds were evaluated across a panel of 20 liability targets (37 functional assays) which included functional cell-based GPCRs and ion channels in both agonist and antagonist readout, measuring calcium flux and biochemical functional assays for nuclear hormone receptors and phosphodiesterases using TR-FRET format, in a 6 point 1:3 dilution dose series (maximum final concentration of 10 μM).

In data set [1] the target is T2, M2 (Homo sapiens, UniProt P08172).
T2 construct: expressed in transfected cells; host or cells: CHO
T2 sequence (P08172 1-466): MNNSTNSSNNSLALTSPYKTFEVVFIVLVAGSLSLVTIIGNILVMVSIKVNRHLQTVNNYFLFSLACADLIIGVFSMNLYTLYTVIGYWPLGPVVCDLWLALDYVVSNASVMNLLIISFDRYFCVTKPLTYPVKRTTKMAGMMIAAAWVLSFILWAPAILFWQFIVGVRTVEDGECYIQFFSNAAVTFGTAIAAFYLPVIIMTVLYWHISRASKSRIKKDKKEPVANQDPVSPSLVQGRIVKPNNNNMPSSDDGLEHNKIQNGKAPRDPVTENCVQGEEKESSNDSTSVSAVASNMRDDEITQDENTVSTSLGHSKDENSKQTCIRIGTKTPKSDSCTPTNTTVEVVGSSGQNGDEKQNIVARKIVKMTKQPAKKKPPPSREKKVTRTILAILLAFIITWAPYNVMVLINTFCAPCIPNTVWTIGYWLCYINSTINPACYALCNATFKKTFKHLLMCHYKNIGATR
Nature of the data set: Bioprofiling 6pt Ag M2 CHO. Type of data set: cell-based. Particulars: agonist readout. The method, then: as §1

For another data set, the target named is T3, 5-HT1A (Homo sapiens, UniProt P08908).
T3 construct: expressed in transfected cells; host or cells: CHO
T3 sequence (P08908 1-422): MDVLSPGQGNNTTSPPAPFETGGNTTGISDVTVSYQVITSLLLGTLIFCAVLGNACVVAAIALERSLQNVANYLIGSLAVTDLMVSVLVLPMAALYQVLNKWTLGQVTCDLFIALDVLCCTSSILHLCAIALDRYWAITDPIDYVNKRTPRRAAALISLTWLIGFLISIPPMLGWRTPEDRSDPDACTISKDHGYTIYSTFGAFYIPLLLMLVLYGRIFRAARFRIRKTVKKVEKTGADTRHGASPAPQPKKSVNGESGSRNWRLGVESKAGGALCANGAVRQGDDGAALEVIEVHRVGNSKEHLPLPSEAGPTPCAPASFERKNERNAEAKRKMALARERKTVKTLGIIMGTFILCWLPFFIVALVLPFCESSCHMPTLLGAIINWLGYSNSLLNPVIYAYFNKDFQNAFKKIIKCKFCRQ
Description: Bioprofiling 6pt Ag 5-HT1A CHO. Particulars: agonist readout. The format is cell-based. The method, then: as §1

The target of a further data set is T4, A1 (Homo sapiens, UniProt P30542).
T4 construct: expressed in transfected cells; host or cells: CHO
T4 sequence (P30542 1-326): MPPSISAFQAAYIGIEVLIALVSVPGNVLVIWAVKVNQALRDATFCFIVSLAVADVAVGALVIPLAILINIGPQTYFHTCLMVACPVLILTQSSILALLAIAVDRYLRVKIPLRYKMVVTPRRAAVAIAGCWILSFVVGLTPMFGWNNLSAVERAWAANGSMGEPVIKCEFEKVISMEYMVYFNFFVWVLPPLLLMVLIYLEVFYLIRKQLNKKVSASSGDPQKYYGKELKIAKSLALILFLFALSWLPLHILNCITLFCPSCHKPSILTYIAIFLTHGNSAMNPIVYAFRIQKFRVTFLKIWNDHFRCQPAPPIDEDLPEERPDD
Nature of the data set: Bioprofiling 6pt Antag A1 CHO. Type of data set: cell-based. Particulars: antagonist readout vs N6-Cyclopentyladenosine (CPA). Here is the method: as §1

Another data set deals with T5, 5-HT2A (Homo sapiens, UniProt P28223).
T5 construct: expressed in transfected cells; host or cells: CHO
T5 sequence (P28223 whole entry): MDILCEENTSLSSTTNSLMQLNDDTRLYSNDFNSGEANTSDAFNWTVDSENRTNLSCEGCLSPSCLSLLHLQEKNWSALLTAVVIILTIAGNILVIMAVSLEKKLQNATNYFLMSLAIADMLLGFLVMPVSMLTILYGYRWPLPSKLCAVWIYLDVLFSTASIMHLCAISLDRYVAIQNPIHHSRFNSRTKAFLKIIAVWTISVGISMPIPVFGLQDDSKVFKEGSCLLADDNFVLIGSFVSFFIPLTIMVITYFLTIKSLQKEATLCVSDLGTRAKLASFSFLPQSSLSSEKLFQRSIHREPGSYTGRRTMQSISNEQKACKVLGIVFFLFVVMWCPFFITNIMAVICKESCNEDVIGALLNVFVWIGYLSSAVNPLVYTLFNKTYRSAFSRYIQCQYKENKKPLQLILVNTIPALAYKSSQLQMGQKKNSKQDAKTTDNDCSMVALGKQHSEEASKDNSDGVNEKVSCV
Description: Bioprofiling 6pt Ag 5-HT2A CHO. The format is cell-based. The conditions noted are these: agonist readout. The method, then:
as §1

A further data set concerns the target T6, ETB (Homo sapiens, UniProt P24530).
T6 construct: expressed in transfected cells; host or cells: CHO
T6 sequence (P24530 27-442): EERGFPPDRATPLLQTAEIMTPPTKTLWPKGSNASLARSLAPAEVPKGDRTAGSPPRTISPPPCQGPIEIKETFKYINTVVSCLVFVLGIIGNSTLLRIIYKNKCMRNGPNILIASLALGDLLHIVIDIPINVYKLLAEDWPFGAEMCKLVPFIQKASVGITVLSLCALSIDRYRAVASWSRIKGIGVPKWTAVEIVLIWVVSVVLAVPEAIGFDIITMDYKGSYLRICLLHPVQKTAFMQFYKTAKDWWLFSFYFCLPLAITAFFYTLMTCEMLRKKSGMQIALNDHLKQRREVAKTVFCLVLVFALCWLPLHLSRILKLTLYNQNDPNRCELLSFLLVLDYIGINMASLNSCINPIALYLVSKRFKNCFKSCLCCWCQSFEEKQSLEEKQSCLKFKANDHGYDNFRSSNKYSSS
Description: Bioprofiling 6pt Antag ETB CHO. The format is cell-based. The conditions noted are these: antagonist readout vs BQ-3020. The method, then:
as §1

A short description of a further data set: HEPG2 cytotoxicity. Type of data set: cell-based. The conditions noted are these: human, HepG2 cells; S1 Data. The source says:
Supplement pntd.0009196.s001.xlsx, sheet "Complete Dataset" | column: HEPG2 CC50 (uM)

The target in the next data set is Cav1.2 (L-type) (Mus musculus, UniProt Q01815). Description: Bioprofiling 6pt Ag Cav1.2 (L-type) ND7/23. Type of data set: cell-based. The conditions noted are these: mouse/rat, ND7/23 cells; agonist readout. The method, then:
as §1

Another data set in a line: Kinetic solubility. Particulars: for solubility kinetic at 24 h: PBS buffer pH 7.4, aqueous buffer, kinetic from dmso stock, PBS pH 7.4, read-out: KS PBS - pH7.4; for KS pH 7.4: kinetic solubility. The format is physicochemical. The method, then:
The precipitates on the incubation plate were removed by centrifugation (15 min, 3000 rpm, r.t.); the compound concentration in the resulting supernatant was determined by LC-MS/MS. Results were calculated as the concentration of remaining compound in solution after incubation.

Data set [2] concerns the target T2, M2. Description: Bioprofiling 6pt Antag M2 CHO. Type of data set: cell-based. The conditions noted are these: antagonist readout vs Carbachol. The method, then: as §1
A short description of data set [3]: Experimental distribution coefficient (eLogD). Particulars: for chromatographic logD: reverse stationary phase HPLC column (Ascentis RP-Amide). Type of data set: physicochemical. The gist of the method: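 Lipophilicity derived from retention time on an Ascentis RP-Amide reverse-phase column by LC-MS/MS, compounds at 1.0 μg/mL with internal standard; mobile phases 5% methanol in 10mM ammonium acetate pH 7.4 and 100% methanol. LogD calculated from a linear calibration of eight standards' retention times against known LogD.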

As a reminder, the EC50 is the concentration giving half of the maximal effect. A higher EC50 goes with a need for much substance. A word on the IC50: it is the concentration needed to halve the response being measured. Read a high IC50 as lower potency. Broadly, the CC50 is the concentration giving 50% cytotoxicity. A higher CC50 goes with better tolerance by the cells. For orientation: chromatographic logD means lipophilicity estimated from chromatographic retention. Higher therefore signals a more lipophilic compound.

Converted amounts (≈) assume the structure as drawn.

T1 sequence (P21554 whole entry): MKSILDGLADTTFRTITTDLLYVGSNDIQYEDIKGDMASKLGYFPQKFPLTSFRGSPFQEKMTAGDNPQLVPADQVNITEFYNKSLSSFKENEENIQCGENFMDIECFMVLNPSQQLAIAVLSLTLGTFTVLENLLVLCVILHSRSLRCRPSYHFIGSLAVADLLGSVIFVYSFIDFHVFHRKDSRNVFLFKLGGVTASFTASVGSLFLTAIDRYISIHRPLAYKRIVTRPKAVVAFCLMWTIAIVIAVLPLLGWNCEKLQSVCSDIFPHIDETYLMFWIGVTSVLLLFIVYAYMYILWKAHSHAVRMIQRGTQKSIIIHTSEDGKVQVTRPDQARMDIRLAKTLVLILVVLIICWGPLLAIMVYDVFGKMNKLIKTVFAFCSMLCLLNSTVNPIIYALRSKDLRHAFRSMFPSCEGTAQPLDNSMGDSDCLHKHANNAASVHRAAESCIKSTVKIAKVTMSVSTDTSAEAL
Cav1.2 (L-type), sequence (Q01815 whole entry): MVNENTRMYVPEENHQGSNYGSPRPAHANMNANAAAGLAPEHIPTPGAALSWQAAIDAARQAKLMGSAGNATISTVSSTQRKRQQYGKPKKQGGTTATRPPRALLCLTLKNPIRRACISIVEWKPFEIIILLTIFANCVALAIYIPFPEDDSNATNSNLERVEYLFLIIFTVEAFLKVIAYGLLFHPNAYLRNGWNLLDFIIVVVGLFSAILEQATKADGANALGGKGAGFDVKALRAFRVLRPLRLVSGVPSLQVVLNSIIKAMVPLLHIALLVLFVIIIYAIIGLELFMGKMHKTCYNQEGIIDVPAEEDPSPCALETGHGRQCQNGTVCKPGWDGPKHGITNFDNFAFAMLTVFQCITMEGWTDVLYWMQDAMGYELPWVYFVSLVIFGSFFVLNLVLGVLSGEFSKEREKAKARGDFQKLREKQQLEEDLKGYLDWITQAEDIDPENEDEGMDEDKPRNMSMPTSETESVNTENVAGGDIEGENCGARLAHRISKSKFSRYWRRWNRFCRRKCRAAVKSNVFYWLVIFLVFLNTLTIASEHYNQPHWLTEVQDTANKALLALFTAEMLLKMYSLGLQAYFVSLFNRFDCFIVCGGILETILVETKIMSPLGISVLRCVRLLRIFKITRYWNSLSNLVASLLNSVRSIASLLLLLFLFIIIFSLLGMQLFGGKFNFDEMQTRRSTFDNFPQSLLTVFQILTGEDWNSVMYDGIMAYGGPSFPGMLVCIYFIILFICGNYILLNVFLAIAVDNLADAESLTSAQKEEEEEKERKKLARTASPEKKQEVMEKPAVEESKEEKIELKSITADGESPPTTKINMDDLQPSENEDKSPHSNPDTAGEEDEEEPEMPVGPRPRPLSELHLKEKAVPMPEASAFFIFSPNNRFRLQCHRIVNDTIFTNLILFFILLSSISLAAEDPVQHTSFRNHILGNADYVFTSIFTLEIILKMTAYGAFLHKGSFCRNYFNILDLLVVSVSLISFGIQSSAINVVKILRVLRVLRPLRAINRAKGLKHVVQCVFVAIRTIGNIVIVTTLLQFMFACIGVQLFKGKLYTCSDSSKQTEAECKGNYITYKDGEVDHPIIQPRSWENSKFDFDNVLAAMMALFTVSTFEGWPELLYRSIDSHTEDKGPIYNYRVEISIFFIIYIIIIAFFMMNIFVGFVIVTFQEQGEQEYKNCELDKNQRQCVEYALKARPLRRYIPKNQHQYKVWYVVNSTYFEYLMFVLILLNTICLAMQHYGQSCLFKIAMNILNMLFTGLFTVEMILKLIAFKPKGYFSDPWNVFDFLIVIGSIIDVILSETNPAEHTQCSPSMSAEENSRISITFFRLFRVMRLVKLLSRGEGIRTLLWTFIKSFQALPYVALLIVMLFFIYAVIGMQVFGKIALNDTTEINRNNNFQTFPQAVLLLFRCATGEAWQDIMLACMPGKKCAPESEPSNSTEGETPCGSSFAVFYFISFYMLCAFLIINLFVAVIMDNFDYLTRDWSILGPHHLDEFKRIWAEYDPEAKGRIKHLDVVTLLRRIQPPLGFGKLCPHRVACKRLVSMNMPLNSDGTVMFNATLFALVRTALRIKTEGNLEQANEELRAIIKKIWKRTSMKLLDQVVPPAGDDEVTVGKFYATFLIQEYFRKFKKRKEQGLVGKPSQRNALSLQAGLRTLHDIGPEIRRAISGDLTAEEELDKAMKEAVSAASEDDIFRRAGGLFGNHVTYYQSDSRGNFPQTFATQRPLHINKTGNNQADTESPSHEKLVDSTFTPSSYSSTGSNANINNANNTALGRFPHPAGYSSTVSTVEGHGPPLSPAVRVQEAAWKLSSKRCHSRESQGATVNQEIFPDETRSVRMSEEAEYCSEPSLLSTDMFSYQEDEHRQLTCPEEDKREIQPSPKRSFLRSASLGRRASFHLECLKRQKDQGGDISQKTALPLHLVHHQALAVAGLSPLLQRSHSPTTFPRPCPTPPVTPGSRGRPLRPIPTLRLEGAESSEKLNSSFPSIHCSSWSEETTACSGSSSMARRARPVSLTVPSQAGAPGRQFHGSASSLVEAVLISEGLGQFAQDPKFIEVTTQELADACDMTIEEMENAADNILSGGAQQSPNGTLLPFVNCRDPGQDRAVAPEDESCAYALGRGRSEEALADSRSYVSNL

Consider `Cn1nccc1C(=O)Nc1nc2ccc(C#N)cc2n1CC(C)(C)C` [Compound 29, O=C(Nc1n(CC(C)(C)C)c(c2n1)cc(C#N)cc2)c3n(C)ncc3], for which the 50% effective concentration (EC50) on CB1, on M2 [1], on 5-HT1A, on 5-HT2A and on Cav1.2 (L-type) was more than 10 µM throughout. Further, the half-inhibitory concentration (IC50) at A1, at ETB and against M2 [2] was more than 10 µM in each case. The CC50 in the data set “HEPG2 cytotoxicity” came out at 9.08 µM. Further, in “Kinetic solubility”, the solubility kinetic at 24 h was 3.11 µg/mL (≈ 9.24 µM). Also, in “Kinetic solubility”, the “KS PBS - pH 2” value turned out to be 1.77 ug/mL. Besides, the “KS pH 7.4” value in the data set “Kinetic solubility” came out at 9.2 μM. In data set [3] (S1 Data), the eLogD is on record as 3.39. The compound further yielded a chromatographic logD in data set [3] (experimental, pH 7.4) of 3.4.

In the case of `Cn1nc(C(F)(F)F)cc1C(=O)Nc1nc2ccc(C#N)cc2n1CC(F)(F)F` [Compound 39, O=C(c1cc(C(F)(F)F)nn1C)Nc2nc(ccc(C#N)c3)c3n2CC(F)(F)F], the half-maximal effective concentration (EC50) at CB1, at M2 [1], on 5-HT1A, at 5-HT2A and at Cav1.2 (L-type) was more than 10 µM in each case. For the same compound, the IC50 against A1, against ETB and against M2 [2] was more than 10 µM throughout. The compound also displayed a CC50 in the data set “HEPG2 cytotoxicity” of 1.13 µM. In “Kinetic solubility”, the solubility kinetic at 24 h is 0.42 µg/mL (≈ 1.01 µM). The “KS PBS - pH 2” value in “Kinetic solubility” was determined as 0.42 ug/mL. The “KS pH 7.4” value in “Kinetic solubility” is reported as less than 1.0 μM. This compound also returned an eLogD in data set [3] (S1 Data) of 3.01. The chromatographic logD in data set [3] (experimental, pH 7.4) was found to be 3.

Regarding `N#Cc1ccc2nc(NC(=O)c3ccnc(C(F)(F)F)c3)n(CC(F)(F)F)c2c1` [Compound 44, O=C(c1ccnc(C(F)(F)F)c1)Nc2nc(ccc(C#N)c3)c3n2CC(F)(F)F], the EC50 on CB1, at M2 [1], on 5-HT1A, on 5-HT2A and on Cav1.2 (L-type) was more than 10 µM throughout. Also, the half-inhibitory concentration (IC50) against A1, against ETB and against M2 [2] was more than 10 µM in each case. In the data set “HEPG2 cytotoxicity”, it took 2.38 µM to reach half-maximal cytotoxicity (CC50). Further, the solubility kinetic at 24 h in “Kinetic solubility” was 0.41 µg/mL (≈ 0.992 µM). Also, the “KS PBS - pH 2” value in “Kinetic solubility” was determined as 0.41 ug/mL. Moreover, in the data set “Kinetic solubility”, the “KS pH 7.4” value was less than 1.0 μM. For the same compound, the eLogD in data set [3] (S1 Data) is 3.12. This compound also gave a chromatographic logD in data set [3] (experimental, pH 7.4) of 3.1.

In the case of `COc1ccc(C(=O)Nc2nc3ccc(C#N)cc3n2CC(F)(F)F)cn1` [Compound 43, O=C(c1ccc(OC)nc1)Nc2nc(ccc(C#N)c3)c3n2CC(F)(F)F], the EC50 on CB1, on M2 [1], at 5-HT1A, at 5-HT2A and on Cav1.2 (L-type) was more than 10 µM each time. In addition, the half-inhibitory concentration (IC50) against A1, at ETB and against M2 [2] was more than 10 µM throughout. Also, the CC50 in the data set “HEPG2 cytotoxicity” stood at 2.6 µM. For the same compound, the solubility kinetic at 24 h in “Kinetic solubility” was 0.38 µg/mL (≈ 1.01 µM). The “KS PBS - pH 2” value in the data set “Kinetic solubility” came out at 0.38 ug/mL. The compound further had an eLogD in data set [3] (experimental, pH 7.4) of 4.9. For the same compound, the chromatographic logD in data set [3] (pH 7.4, S1 Data) came to 4.85.

As to `N#Cc1ccc2nc(NC(=O)c3ccc(C(F)(F)F)nc3)n(CC(F)(F)F)c2c1` [Compound 45, O=C(c1ccc(C(F)(F)F)nc1)Nc2nc(ccc(C#N)c3)c3n2CC(F)(F)F], the concentration for a half-maximal effect (EC50) at CB1, at M2 [1], at 5-HT1A, on 5-HT2A and on Cav1.2 (L-type) was more than 10 µM throughout. Moreover, the 50% inhibitory concentration (IC50) on A1, at ETB and against M2 [2] was more than 10 µM each time. In addition, half-maximal cytotoxicity in “HEPG2 cytotoxicity” (CC50) was put at 1.12 µM. Besides, the solubility kinetic at 24 h in “Kinetic solubility” was 0.41 µg/mL (≈ 0.992 µM). The “KS PBS - pH 2” value in the data set “Kinetic solubility” is 0.41 ug/mL. In [3] (experimental, pH 7.4), this compound registered an eLogD of 3.1. The chromatographic logD in data set [3] (pH 7.4, S1 Data) worked out at 3.1.

In the case of `Cn1nccc1C(=O)Nc1nc2ccc(C#N)cc2n1CC(F)(F)F` [Compound 30, O=C(c1ccnn1C)Nc2nc(ccc(C#N)c3)c3n2CC(F)(F)F], the 50% effective concentration (EC50) at CB1, on M2 [1], at 5-HT1A, on 5-HT2A and at Cav1.2 (L-type) was more than 10 µM throughout. The half-inhibitory concentration (IC50) against A1, at ETB and against M2 [2] was more than 10 µM each time. Also, half-maximal cytotoxicity in “HEPG2 cytotoxicity” (CC50) was put at 5.46 µM. For the same compound, the solubility kinetic at 24 h in the data set “Kinetic solubility” stood at 9.22 µg/mL (≈ 26.5 µM). Also, the “KS PBS - pH 2” value in the data set “Kinetic solubility” is listed as 10.45 ug/mL. In addition, in the data set “Kinetic solubility”, the “KS pH 7.4” value is listed as 26 μM. Also, the eLogD in [3] (S1 Data) amounted to 2.70. Further, in [3] (experimental, pH 7.4), the chromatographic logD amounted to 2.7.
